PMC9683698 (Science Advances, 2022)

Assays:
[1] = biological target: T1, cPLA2 (cPLA2 group IVA, PLA2G4A) (Homo sapiens, UniProt P47712); test: biochemical
T1 construct: recombinant, expressed and purified from insect cells
T1 sequence (P47712 1-749): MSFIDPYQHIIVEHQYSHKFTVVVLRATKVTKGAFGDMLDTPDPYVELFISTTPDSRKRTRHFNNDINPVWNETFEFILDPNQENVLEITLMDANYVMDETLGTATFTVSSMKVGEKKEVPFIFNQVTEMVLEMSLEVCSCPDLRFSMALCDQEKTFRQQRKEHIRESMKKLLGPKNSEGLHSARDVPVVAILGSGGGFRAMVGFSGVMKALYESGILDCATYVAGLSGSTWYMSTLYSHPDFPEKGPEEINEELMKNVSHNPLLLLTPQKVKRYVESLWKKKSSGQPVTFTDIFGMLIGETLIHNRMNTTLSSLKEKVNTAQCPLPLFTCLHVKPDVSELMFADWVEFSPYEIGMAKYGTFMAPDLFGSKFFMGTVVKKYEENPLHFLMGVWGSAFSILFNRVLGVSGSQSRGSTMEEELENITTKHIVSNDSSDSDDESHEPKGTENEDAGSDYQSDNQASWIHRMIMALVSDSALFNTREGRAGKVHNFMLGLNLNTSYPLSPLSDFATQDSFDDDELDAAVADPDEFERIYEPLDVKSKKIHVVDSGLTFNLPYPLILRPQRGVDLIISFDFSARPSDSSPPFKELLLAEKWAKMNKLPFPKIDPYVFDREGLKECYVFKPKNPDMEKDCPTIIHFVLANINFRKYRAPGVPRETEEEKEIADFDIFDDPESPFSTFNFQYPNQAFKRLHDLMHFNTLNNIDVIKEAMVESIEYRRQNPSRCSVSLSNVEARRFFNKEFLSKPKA

[2] = biological target: SARS-CoV S ectodomain (SARS-CoV) (UniProt P59594); test: […], SEC buffer 20 mM tris pH 7.5, 100 mM NaCl; […]

Compound | IC50 [1] | stoichiometry N [2]
CCCCC/C=C\C/C=C\CCCCCCCC(=O)O [linoleic acid] | ~100 µM | –
SARS-CoV S ectodomain (from UniProt P59594 14-1193) (domain or fragment) | – | 3
